According to publication PMC10439133, “Biosynthesis of ansamitocin P-3 incurs stress on the producing strain Actinosynnema pretiosum at multiple targets” (Communications Biology, 2023):

What was measured:
[1] = target: T1, flavin-dependent thymidylate synthase (FDTS) (Actinosynnema pretiosum, UniProt A0A290ZCH3); assay: SPR (Biacore 8K, CM5 chip); also NADPH oxidase inhibition with KI =[…]; format: binding
T1 construct: gene thyX; recombinant His-tagged, from pET30a in E. coli BL21(DE3)
T1 sequence (A0A290ZCH3 1-250): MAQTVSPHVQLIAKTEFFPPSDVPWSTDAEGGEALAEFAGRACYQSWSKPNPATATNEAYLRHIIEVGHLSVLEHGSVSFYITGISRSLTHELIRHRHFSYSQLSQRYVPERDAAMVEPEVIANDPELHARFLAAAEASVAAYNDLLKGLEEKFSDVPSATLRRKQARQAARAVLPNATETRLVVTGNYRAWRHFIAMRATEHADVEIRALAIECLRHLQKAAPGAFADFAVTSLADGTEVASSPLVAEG

[2] = target: T2, deoxythymidine diphosphate glucose-4,6-dehydratase (dTGD) (Actinosynnema pretiosum, UniProt A0A290ZDY1); assay: SPR (Biacore 8K, CM5 chip); also enzyme inhibition with KI =[…]; format: binding
T2 construct: gene rfbB; recombinant His-tagged, from pET30a in E. coli BL21(DE3)
T2 sequence (A0A290ZDY1 1-330): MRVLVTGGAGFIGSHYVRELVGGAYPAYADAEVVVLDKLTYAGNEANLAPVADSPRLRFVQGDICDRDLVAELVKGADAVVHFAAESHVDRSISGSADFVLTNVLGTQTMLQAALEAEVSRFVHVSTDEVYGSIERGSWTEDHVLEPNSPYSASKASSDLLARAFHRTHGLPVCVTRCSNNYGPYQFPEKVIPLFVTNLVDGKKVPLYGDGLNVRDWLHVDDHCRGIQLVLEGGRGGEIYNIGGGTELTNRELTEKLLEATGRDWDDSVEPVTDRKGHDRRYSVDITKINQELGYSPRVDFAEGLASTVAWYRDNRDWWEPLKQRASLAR

## COc1cc2cc(c1Cl)N(C)C(=O)C[C@H](OC(=O)C(C)C)[C@]1(C)O[C@H]1[C@H](C)[C@@H]1C[C@@](O)(NC(=O)O1)[C@H](OC)/C=C/C=C(\C)C2 [AP-3, ansamitocin P-3]
[1]
  Kd: 66.5 µM
[2]
  Kd: 360 µM
